Legend:
PLK1 = PLK1 (Homo sapiens, UniProt P53350); assay: PLK1 biochemical inhibition
Pim-2 = molecular target: T1, Pim-2 (Homo sapiens, UniProt Q9P1W9); assay: TR-FRET assay, Pim-2 kinase (phosphorylation of Bad Ser112); assay type: biochemical; conditions: TR-FRET; ATP 40 μM; read-out: IC50 Pim2
T1 construct: His6-labelled recombinant full-length human Pim-1, Pim-2 or Pim-3 protein; His6; made in house
Summary of the method: (§1)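 For each of Pim-1, Pim-2 and Pim-3 (His6-tagged full-length human), compounds were titrated over 10 concentrations in duplicate, typically from 30 μM, with ATP at 40 μM, equal to apparent KM. Bad Ser112 phosphorylation was read as the 665/615 nm TR-FRET ratio and IC50 fitted by 4-parameter logistic model.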

Pim-3 = molecular target: T2, Pim-3 (Homo sapiens, UniProt Q86V86); assay: TR-FRET assay, Pim-3 kinase (phosphorylation of Bad Ser112); assay type: biochemical; conditions: TR-FRET; ATP 40 μM; read-out: IC50 Pim3
T2 construct: His6-labelled recombinant full-length human Pim-1, Pim-2 or Pim-3 protein; His6; made in house
Summary of the method: as §1

Pim-1 = molecular target: T3, Pim-1 (Homo sapiens, UniProt P11309); assay: TR-FRET assay, Pim-1 kinase (phosphorylation of Bad Ser112); assay type: biochemical; conditions: TR-FRET; ATP 40 μM; read-out: IC50 Pim1
T3 construct: His6-labelled recombinant full-length human Pim-1, Pim-2 or Pim-3 protein; His6; made in house
Summary of the method: as §1

T1 sequence (Q9P1W9 whole entry): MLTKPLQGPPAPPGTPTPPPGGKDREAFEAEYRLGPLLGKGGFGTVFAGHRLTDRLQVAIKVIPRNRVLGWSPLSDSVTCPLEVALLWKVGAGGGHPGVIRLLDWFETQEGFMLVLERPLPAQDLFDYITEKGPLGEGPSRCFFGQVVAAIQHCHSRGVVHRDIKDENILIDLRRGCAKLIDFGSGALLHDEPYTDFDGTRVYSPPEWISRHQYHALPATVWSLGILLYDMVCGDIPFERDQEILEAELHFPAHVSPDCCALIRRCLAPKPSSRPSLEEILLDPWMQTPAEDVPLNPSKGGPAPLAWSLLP
T3 sequence (P11309 whole entry): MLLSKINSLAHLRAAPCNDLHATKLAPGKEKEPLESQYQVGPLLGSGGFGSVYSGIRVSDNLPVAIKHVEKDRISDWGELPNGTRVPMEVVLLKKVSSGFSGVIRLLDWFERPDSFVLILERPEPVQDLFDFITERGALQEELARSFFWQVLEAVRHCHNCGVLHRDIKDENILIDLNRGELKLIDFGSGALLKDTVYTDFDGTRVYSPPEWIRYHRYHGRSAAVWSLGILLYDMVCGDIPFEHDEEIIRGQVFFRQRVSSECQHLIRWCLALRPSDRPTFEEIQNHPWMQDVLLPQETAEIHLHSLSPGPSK
Sequence of PLK1 (P53350 whole entry, species assumed): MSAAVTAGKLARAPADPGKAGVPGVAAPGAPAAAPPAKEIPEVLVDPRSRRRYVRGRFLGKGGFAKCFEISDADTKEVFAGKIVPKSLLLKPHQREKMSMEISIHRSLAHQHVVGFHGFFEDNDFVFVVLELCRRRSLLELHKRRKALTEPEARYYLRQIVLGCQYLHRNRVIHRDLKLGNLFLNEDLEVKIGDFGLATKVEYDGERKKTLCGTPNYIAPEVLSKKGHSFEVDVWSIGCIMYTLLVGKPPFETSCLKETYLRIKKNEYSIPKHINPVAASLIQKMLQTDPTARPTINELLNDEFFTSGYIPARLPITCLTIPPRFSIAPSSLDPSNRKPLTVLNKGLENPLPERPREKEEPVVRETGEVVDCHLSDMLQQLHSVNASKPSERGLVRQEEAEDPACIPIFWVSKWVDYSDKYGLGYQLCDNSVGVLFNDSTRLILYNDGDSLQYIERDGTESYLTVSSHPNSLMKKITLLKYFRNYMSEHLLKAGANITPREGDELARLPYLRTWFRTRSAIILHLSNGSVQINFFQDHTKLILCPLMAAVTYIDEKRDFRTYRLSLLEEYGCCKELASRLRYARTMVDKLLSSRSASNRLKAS

| SMILES | IC50 (PLK1) [nM] | IC50 (Pim-2) [nM] | IC50 (Pim-3) [nM] | IC50 (Pim-1) [nM] |
| --- | --- | --- | --- | --- |
| COc1cnc2[nH]c3cnc(-c4cnn(CCCCCNC(=O)OC(C)(C)C)c4)cc3c2c1 [Example 167, 2-methyl-2-propyl {5-[4-(3-methoxy-9H-pyrrolo[2,3-b:5,4-c′]dipyrid-6-yl)-1H-pyrazol-1-yl]pentyl}carbamate] | > 5000 | 1000 to 5000 | 100 to 1000 | 100 to 1000 |
| CCN(CC)CCn1nc(C)c(-c2cnc3[nH]c4cnc(-c5cccnc5)cc4c3c2)c1C [Example 125, 2-{3,5-dimethyl-4-[6-(pyrid-3-yl)-9H-pyrrolo[2,3-b:5,4-c′]dipyrid-3-yl]-1H-pyrazol-1-yl}-N,N-diethyl-ethanamine] | 1000 to 5000 |  | 1 to 100 | 1 to 100 |
| CN1CCC(N2CCN(c3c(F)cnc4[nH]c5cnc(-c6cccnc6)cc5c34)CC2)CC1 [Example 77, 3-fluoro-4-[4-(1-methylpiperid-4-yl)piperazin-1-yl]-6-(pyrid-3-yl)-9H-pyrrolo-[2,3-b:5,4-c′]-dipyridine] |  | > 5000 | 100 to 1000 | 100 to 1000 |
| c1cncc(-c2cc3c(cn2)[nH]c2ncc(-c4ccc(OCCCN5CCOCC5)cc4)cc23)c1 [Example 149, 3-{4-[3-(morpholin-4-yl)propoxy]phenyl}-6-(pyrid-3-yl)-9H-pyrrolo[2,3-b:5,4-c′]-dipyridine] |  | 100 to 1000 | 1 to 100 | 1 to 100 |
| c1cncc(-c2cc3c(cn2)[nH]c2ncc(-c4ccc(OCCCN5CCCCC5)cc4)cc23)c1 [Example 147, 3-{4-[3-(piperid-1-yl)propoxy]phenyl}-6-(pyrid-3-yl)-9H-pyrrolo[2,3-b:5,4-c′]-dipyridine] |  | 100 to 1000 | 1 to 100 | 1 to 100 |
| Fc1cnc2[nH]c3cnc(-c4cccnc4)cc3c2c1N1CCC(N2CCCC2)CC1 [Example 85, 3-fluoro-6-(pyrid-3-yl)-4-[4-(pyrrolidin-1-yl)piperid-1-yl]-9H-pyrrolo[2,3-b:5,4-c′]-dipyridine] |  | 1000 to 5000 | 100 to 1000 | 1 to 100 |
| COc1ccncc1-c1cc2c(cn1)[nH]c1ncc(F)cc12 [Example 160, 3-fluoro-6-(4-methoxypyrid-3-yl)-9H-pyrrolo[2,3-b:5,4-c′]dipyridine] |  | > 5000 | 1000 to 5000 | 100 to 1000 |
| Cc1cc(N2CCN(C(=O)OC(C)(C)C)CC2)ncc1-c1cnc2[nH]c3cnc(-c4cccnc4)cc3c2c1 [Example 156, 2-methyl-2-propyl 4-{4-methyl-5-[6-(pyrid-3-yl)-9H-pyrrolo[2,3-b:5,4-c′]dipyrid-3-yl]-pyrid-2-yl}piperazine-1-carboxylate] |  | > 5000 | 100 to 1000 | 1 to 100 |
| CC(C)COC(=O)c1cnc2[nH]c3cnc(-c4cccnc4)cc3c2c1 [Example 18, 2-methylpropyl 6-(pyrid-3-yl)-9H-pyrrolo[2,3-b:5,4-c′]dipyridine-3-carboxylate] |  | > 5000 | 100 to 1000 | 1 to 100 |
| Fc1cnc2[nH]c3cnc(-c4cccnc4)cc3c2c1N1CCC(N2CCCCC2)CC1 [Example 83, 4-(1.4′-bipiperid-1′-yl)-3-fluoro-6-(pyrid-3-yl)-9H-pyrrolo[2,3-b:5,4-c′]-dipyridine] |  | > 5000 | 100 to 1000 | 100 to 1000 |
| O=C(O)c1cc2c(cn1)[nH]c1ncccc12 [Example 172, 9H-pyrrolo[2,3-b:5,4-c′]dipyridine-6-carboxylic acid] | > 5000 | > 5000 |  | > 5000 |
| CN1CCN(c2ccc(-c3cnc4[nH]c5cnc(-c6cccnc6)cc5c4c3)cc2)CC1 [Example 138, 3-[4-(4-methylpiperazin-1-yl)phenyl]-6-(pyrid-3-yl)-9H-pyrrolo[2,3-b:5,4-c′]dipyridine] |  | 100 to 1000 | 1 to 100 | 1 to 100 |
| CN1CCN(c2cnc3[nH]c4cnc(-c5cccnc5)cc4c3c2)CC1 [Example 106, 3-(4-methylpiperazin-1-yl)-6-(pyrid-3-yl)-9H-pyrrolo[2,3-b:5,4-c′]dipyridine] |  | > 5000 | 1 to 100 | 1 to 100 |
| Fc1cnc2[nH]c3cnc(-c4ccsc4)cc3c2c1 [Example 162, 3-fluoro-6-(thiophen-3-yl)-9H-pyrrolo[2,3-b:5,4-c′]dipyridine] | 1000 to 5000 |  | > 5000 | > 5000 |

Second part, the molecule after the results:

| IC50 (PLK1) [nM] | IC50 (Pim-2) [nM] | IC50 (Pim-3) [nM] | IC50 (Pim-1) [nM] | SMILES |
| --- | --- | --- | --- | --- |
| 100 to 1000 |  |  | 100 to 1000 | Fc1cnc2[nH]c3cnc(-c4cccnc4)cc3c2c1 [Example 2, 3-fluoro-6-(pyrid-3-yl)-9H-pyrrolo[2,3-b:5,4-c′] dipyridine] |
|  | 1000 to 5000 | 100 to 1000 | 1 to 100 | Fc1cnc2[nH]c3cnc(-c4cccnc4)cc3c2c1-c1ccc2cc[nH]c2c1 [Example 55] |
|  | 1000 to 5000 | 100 to 1000 | 1 to 100 | OCC(O)CCc1c(F)cnc2[nH]c3cnc(-c4cccnc4)cc3c12 (stereo not drawn) [Example 30, 4-(3-fluoro-6-(pyrid-3-yl)-9H-pyrrolo[2,3-b:5,4-c′]dipyrid-4-yl]butane-1,2-diol] |
|  | > 5000 | 100 to 1000 | 100 to 1000 | Cc1c(F)cnc2[nH]c3cnc(-c4cccnc4)cc3c12 [Example 38, 4-methyl-3-fluoro-6-(pyrid-3-yl)-9H-pyrrolo[2,3-b:5,4-c′]dipyridine] |
|  | > 5000 | 1000 to 5000 | 100 to 1000 | CN(C(=O)c1c(F)cnc2[nH]c3cnc(-c4cccnc4)cc3c12)c1ccccc1 [Example 35, 3-fluoro-N-methyl-N-phenyl-6-(pyrid-3-yl)-9H-pyrrolo[2,3-b:5,4-c′]-dipyridine-4-carboxamide] |
|  | 1000 to 5000 | 1 to 100 | 1 to 100 | CN1CCN(c2cccc(-c3cnc4[nH]c5cnc(-c6cccnc6)cc5c4c3)c2)CC1 [Example 139, 3-[3-(4-methylpiperazin-1-yl)phenyl]-6-(pyrid-3-yl)-9H-pyrrolo[2,3-b:5,4-c′]dipyridine] |
|  | > 5000 | 100 to 1000 | 100 to 1000 | CCOC(=O)/C=C/c1c(F)cnc2[nH]c3cnc(-c4cccnc4)cc3c12 [Example 29, ethyl (2E)-3-[3-fluoro-6-(pyrid-3-yl)-9H-pyrrolo-[2,3-b:5,4-c′]dipyrid-4-yl]prop-2-enoate] |
|  | 100 to 1000 | 100 to 1000 | 1 to 100 | Fc1cnc2[nH]c3cnc(-c4cccnc4)cc3c2c1-c1cn[nH]c1 [Example 71, 3-fluoro-4-(1H-pyrazol-4-yl)-6-(pyrid-3-yl)-9H-pyrrolo[2,3-b:5,4-c′]-dipyridine] |
|  | 100 to 1000 | 1 to 100 | 1 to 100 | NCCCOc1ccc(-c2cnc3[nH]c4cnc(-c5cccnc5)cc4c3c2)cc1 [Example 155, 3-{4-[6-(pyrid-3-yl)-9H-pyrrolo[2,3-b:5,4-c′]dipyrid-3-yl]-phenoxy}propan-1-amine] |
|  | 100 to 1000 | 1 to 100 | 1 to 100 | Fc1cnc2[nH]c3cnc(-c4cccnc4)cc3c2c1N1CCCCC1 [Example 76, 3-fluoro-4-(piperid-1-yl)-6-(pyrid-3-yl)-9H-pyrrolo[2,3-b:5,4-c′]dipyridine] |
|  | > 5000 | 1000 to 5000 | 1000 to 5000 | Cn1nccc1-c1c(F)cnc2[nH]c3cnc(-c4cccnc4)cc3c12 [Example 67, 3-fluoro-4-(1-methyl-1H-pyrazol-5-yl)-6-(pyrid-3-yl)-9H-pyrrolo[2,3-b:5,4-c']-dipyridine] |
|  | > 5000 | 1 to 100 | 1 to 100 | c1cncc(-c2cc3c(cn2)[nH]c2ncc(-c4ccnc(N5CCNCC5)c4)cc23)c1 [Example 144, 3-[2-(piperazin-1-yl)pyrid-4-yl]-6-(pyrid-3-yl)-9H-pyrrolo[2,3-b:5,4-c′]dipyridine] |
|  | > 5000 | 1000 to 5000 | 100 to 1000 | CCOc1ncccc1-c1c(F)cnc2[nH]c3cnc(-c4cccnc4)cc3c12 [Example 64, 4-(2-ethoxypyrid-3-yl)-3-fluoro-6-(pyrid-3-yl)-9H-pyrrolo[2,3-b:5,4-c′]dipyridine] |
|  | 1000 to 5000 | 1 to 100 | 1 to 100 | CC(C)(O)C#Cc1c(F)cnc2[nH]c3cnc(-c4cccnc4)cc3c12 [Example 91, 4-[3-fluoro-6-(pyrid-3-yl)-9H-pyrrolo[2,3-b:5,4-c′]dipyrid-4-yl]-2-methylbut-3-yn-2-ol] |
|  | 1000 to 5000 | 100 to 1000 | 1 to 100 | CCOC(=O)c1cnc2[nH]c3cnc(-c4cccnc4)cc3c2c1 [Example 4, ethyl 6-(pyrid-3-yl)-9H-pyrrolo [2,3-b:5,4-c′] dipyridine-3-carboxylate] |
|  | > 5000 | 100 to 1000 | 1 to 100 | Cn1ccc2cc(-c3c(F)cnc4[nH]c5cnc(-c6cccnc6)cc5c34)ccc21 [Example 59, 3-fluoro-4-(1-methyl-1H-indol-5-yl)-6-(pyrid-3-yl)-9H-pyrrolo[2,3-b:5,4-c′]-dipyridine] |
|  | > 5000 | 100 to 1000 | 100 to 1000 | Fc1cnc2[nH]c3cnc(-c4cccnc4)cc3c2c1-c1cccnc1 [Example 69, 3-fluoro-4,6-di(pyrid-3-yl)-9H-pyrrolo[2,3-b:5,4-c′]dipyridine] |
|  | 1000 to 5000 | 1 to 100 | 1 to 100 | CCN(CC)CCOc1cccc(-c2cnc3[nH]c4cnc(-c5cccnc5)cc4c3c2)c1 [Example 153, N,N-diethyl-2-{3-[6-(pyrid-3-yl)-9H-pyrrolo[2,3-b:5,4-c′]dipyrid-3-yl]phenoxy}ethan-amine] |
